Data: US20240285784A1, “PEPTIDIC CONJUGATES OF SN38 USEFUL IN THE TREATMENT OF CANCER” (FUNDACIÓ INSTITUT DE RECERCA BIOMÈDICA (IRB BARCELONA), priority 2020, published 2024)
≈ marks a conversion by molar mass, not a printed value. Read-outs that look alike come from different tables or passages of the source. *1 amine or outer side, *2 acyl side, *3 side chain or, on linkers, in order; H or OH if unused. Where a SMILES comes first, the peptide text is derived from it. Bridges are numbered along the chain shown (N, C = ends). [ ]: non-standard residue; d: D form. The star is where a group is joined. ξ: configuration not given here. X6 = CCc1c2c(nc3ccc(OC(=O)OCc4ccc(NC(=O)[C@H](CCCNC(N)=O)NC(=O)[C@@H](NC(=O)COCC(=O)*)C(C)C)cc4)cc13)-c1cc3c(c(=O)n1C2)COC(=O)[C@]3(O)CC; X3 = CCc1c2c(nc3ccc(O)cc13)-c1cc3c(c(=O)n1C2)COC(=O)[C@@]3(CC)OC(=O)CCCCn1cc(CCCC(=O)NCCCOCCOCCOCCSCN*)nn1; X2 = CCc1c2c(nc3ccc(O)cc13)-c1cc3c(c(=O)n1C2)COC(=O)[C@@]3(CC)OC(=O)CCC(=O)*; X7 = CCc1c2c(nc3ccc(OC(=O)*)cc13)-c1cc3c(c(=O)n1C2)COC(=O)[C@]3(O)CC; X4 = CC(O)CC(N[*:1])C(=O)[*:2]; Suc = O=C(CCC(=O)[*:2])[*:1]; Nva = CCC[C@H](N)C(=O)O; ξE = NC(CCC(=O)O)C(=O)O; Dap = NC[C@H](N)C(=O)O; ξN = NC(=O)CC(N)C(=O)O; ξK = NCCCCC(N)C(=O)O; ξT = CC(O)C(N)C(=O)O; ξDap = NCC(N)C(=O)O; ξP = O=C(O)C1CCCN1; ξA = CC(N)C(=O)O

Key:
[1] = system: pediatric high-grade glioma HSJD-GBM-001; test: cells; type: cell-based; conditions: MTS, 72 h incubation, Example 11, Table 4, read-out: IC50 values of compounds
Source text: (§1) Cancer cell lines were obtained from the repository maintained at Hospital Sant Joan de Deu (Barcelona, Spain). Cancer cell lines used in these experiment included cancer types of adult glioma (U373 and U87 cell lines), pediatric gliomas including diffuse intrinsic pontine glioma (HSJD-DIPG-007, HSJD-DIPG-011), and pediatric high-grade glioma (HSJD-GBM-001), retinoblastoma (HSJD-RBT-5, HSJD-RBT-7 and HSJD-RBT-14), Ewing sarcoma (A673), rhabdomyosarcoma (Rd and RH4) and neuroblastoma (LAN-1 and SK-N-JD cell lines and HSJD-NB-004, HSJD-NB-005 and HSJD-NB-016 patient-derived cell models). Briefly, between 3000 and 30,000 cancer cells were cultured in 96 well plates and 24 h later the cells were exposed to compound SN38-linker A-MiniAp4 (Ia) (concentration range 1-0.00000001 μM), SN38 (concentration range 1-0.00000001 μM), or irinotecan (concentration range 100-0,000001 μM). To add the drugs to the cells in culture, SN38-linker A-MiniAp4 (Ia) and irinotecan were prepared in culture medium from stock solutions at concentration 1 mg/mL in water. SN38 was prepared in culture medium from a stock solution at concentration 1 mg/mL in DMSO. The tetrazolium compound [3-(4,5-dimethylthiazol-2-yl)-5-(3-carboxymethoxyphenyl)-2-(4-sulfophenyl)-2H-tetrazolium] (MTS assay; Promega, Fitchburg, WI) was used to determine cell viability after 72 h incubation with the drugs. The concentrations of drug required to cause a reduction of 50% in cell proliferation (IC50 and 95% confidence intervals) were calculated with Graphpad Prism 8 software (La Jolla, CA). Activity curves were built for adult glioma cell lines U87 (FIG. 1) and U373 (FIG. 2), pediatric gliomas including DIPG models HSJD-DIPG-007 (FIG. 3) and HSJD-DIPG-011 (FIG. 4), and pediatric high-grade glioma model HSJD-GBM-001 (FIG. 5), retinoblastoma models HSJD-RBT-5 (FIG. 6), HSJD-RBT-7 (FIG. 7) and HSJD-RBT-14 (FIG. 8), Ewing sarcoma cell line A673 (FIG. 9), rhabdomyosarcoma cell lines Rd (FIG. 10) and RH4 (FIG. 11), neuroblastoma cell lines LAN-1 (FIG. 12) and SK-N-JD (FIG. 13) and neuroblastoma patient-derived cell models HSJD-NB-004 (FIG. 14), HSJD-NB-005 (FIG. 15) and HSJD-NB-016 (FIG. 16). The established IC50 values are in Table 3.
The present inventors compared the activity of the new compound SN38 conjugated with MiniAp4 (SN38-linkerA-MiniAp4, example 7 also named G2B-001) and with SN38-linker B-THRre (comparative example 2). Original compound SN38 was used as reference. Cancer cell lines used in these experiments were pediatric gliomas including diffuse intrinsic pontine glioma HSJD-DIPG-007, and pediatric high-grade glioma HSJD-GBM-001. Briefly, 3000 cancer cells were cultured in 96 well plates and 24 h later the cells were exposed to compound compound (Ia) (concentration range 1-0.00000001 μM), SN38-Linker B-THRre (concentration range 1-0.00000001 μM), and SN38 (concentration range 1-0.00000001 μM). To add the drugs to the cells in culture, SN38-Linker A-MiniAp4 (Ia) and SN38-Linker B-THRre were prepared in culture medium from stock solutions at concentration 1 mg/mL in water. SN38 was prepared in culture medium from a stock solution at concentration 1 mg/mL in DMSO. The MTS assay was used to determine cell viability after 72 h incubation with the drugs. The concentrations of drug required to cause a reduction of 50% in cell proliferation (IC50 and 95% confidence intervals) were calculated with Graphpad Prism 8 software (La Jolla, CA). Activity curves were built for cells HSJD-DIPG-007 (FIG. 20) and HSJD-GBM-001 (FIG. 21). The established IC50 values are in Table 4.
Cancer cell lines used in these experiments were pediatric gliomas including diffuse intrinsic pontine glioma HSJD-DIPG-007, and pediatric high-grade glioma HSJD-GBM-001. Briefly, 3000 cancer cells were cultured in 96 well plates and 24 h later the cells were exposed to compounds (Ia), comparative example 1 and comparative example 2 (concentration range 1-0.001 μM for each of them). […]

[2] = system: diffuse intrinsic pontine glioma HSJD-DIPG-007; test: cells; conditions: HSJD-DIPG-007, MTS, 72 h incubation
Source text: as §1, with “Briefly, between 3000 and 30,000 cancer cells were cultured in 96 well plates and 24 h later the cells were exposed to compound SN38-linker A-MiniAp4 (Ia) (concentration range 1-0.00000001 μM), SN38 (concentration range 1-0.00000001 μM), or irinotecan (concentration range 100-0,000001 μM).” left out, “The tetrazolium compound [3-(4,5-dimethylthiazol-2-yl)-5-(3-carboxymethoxyphenyl)-2-(4-sulfophenyl)-2H-tetrazolium] (MTS assay; Promega, Fitchburg, WI) was used to determine cell viability after 72 h incubation with the drugs. The concentrations of drug required to cause a reduction of 50% in cell proliferation (IC50 and 95% confidence intervals) were calculated with Graphpad Prism 8 software (La Jolla, CA).” left out
Cancer cell lines used in these experiments were pediatric gliomas including diffuse intrinsic pontine glioma HSJD-DIPG-007, and pediatric high-grade glioma HSJD-GBM-001. […] To add the drugs to the cells in culture, SN38-Linker A-MiniAp4 (Ia) and SN38-Linker B-THRre were prepared in culture medium from stock solutions at concentration 1 mg/mL in water. SN38 was prepared in culture medium from a stock solution at concentration 1 mg/mL in DMSO. […] Activity curves were built for cells HSJD-DIPG-007 (FIG. 20) and HSJD-GBM-001 (FIG. 21).
Cancer cell lines used in these experiments were pediatric gliomas including diffuse intrinsic pontine glioma HSJD-DIPG-007, and pediatric high-grade glioma HSJD-GBM-001. […] All compounds were prepared in culture medium from stock solutions at concentration 1 mg/mL in water. […] Activity curves were built for cells HSJD-DIPG-007 (FIG. 22) and HSJD-GBM-001 (FIG. 23).
Cancer cell line used in these experiment was HSJD-DIPG-007.

[3] = Evaluation of solubility in water; type: physicochemical; conditions: at 1 mg/mL
Experimental: 25 mg of SN38-linker A-MiniAp4 were dissolved in H2O, showing a completely transparent solution. This means that SN38-linker A-MiniAp4 has a solubility in water higher than 5 mg/mL, more than 400-fold the solubility in water described for SN38 (Mol. Pharmaceutics, 2016, 13, 379-390).

[4] = Stability in human plasma at 37° C. in vitro; type: in vitro ADME
Experimental: To assess the stability of the SN38-linker A-MiniAp4 (Ia) (example 7) in human, mouse, dog and rat plasma at 37° C., the compound was prepared at 200 μM in plasma samples in triplicates at each timepoint (0 h, 1 h, 4 h, 8 h and 24 h) for each species. Once the incubation was finalised, plasma proteins were immediately precipitated by adding chilly methanol (ratio 4:1, methanol:plasma) and tubes were shacked for few seconds (vortex). Samples were centrifuged at 3,000 rpm for 30 minutes at 4° C., supernatants were collected, transferred to the injection plate and injected to LC-MS system.
Compound recovery was determined by comparing the analyte response in a biological sample that is spiked with the analyte and processed, with the response in a methanol sample that is spiked with the analyte and processed.
Plasma stability assay was performed using blank plasma from untreated volunteers/animals. K2-EDTA was used as anticoagulant. Human blank plasma used was obtained from Hospital Sant Pau, mouse blank plasma used was obtained from Janvier, dog blank plasma used was obtained from Isoquimen and rat blank plasma used were obtained from Draconis Pharma.
To assess the stability of the G2B-001 lineal (Ib) (example 16) in human plasma at 37° C., the compound was prepared at 200 µM in plasma samples in triplicates at each timepoint (0 h, 0.5 h, 1 h, 2 h, 4 h, 8 h and 24 h). Once the incubation was finalised, plasma proteins were immediately precipitated by adding chilly methanol (ratio 4:1, methanol:plasma) and tubes were shacked for few seconds (vortex). Samples were centrifuged at 3,000 rpm for 30 minutes at 4° C., supernatants were collected, transferred to the injection plate and injected to LC-MS system. Compound recovery was determined by comparing the analyte response in a biological sample that is spiked with the analyte and processed, with the response in a methanol sample that is spiked with the analyte and processed.
Plasma stability assay was performed using blank plasma from untreated volunteers. K2-EDTA was used as anticoagulant. Human blank plasma used was obtained from Hospital Sant Pau.

[5] = Turbidimetric aqueous solubility; type: physicochemical; conditions: 37 °C, pH 7.4, aqueous buffer, kinetic from dmso stock, Turbidity aqueous solubility, Estimated precipitation range
Experimental: Each test compound concentration was then further diluted 1 in 100 in buffer (0.01 M phosphate buffered saline pH 7.4) so that the final DMSO concentration was 1% and the final test compound concentrations were 1, 3, 10, 30 and 100 μM. The experiment was performed at 37° C. and each concentration was incubated in 7 replicate wells. The plates were incubated for 2 hr at 37° C. before the absorbance was measured at 620 nm.

Structure (SMILES): CCc1c2c(nc3ccc(O)cc13)-c1cc3c(c(=O)n1C2)COC(=O)[C@@]3(CC)OC(=O)CCC(=O)N1CCC[C@@H]1C(=O)N[C@H](Cc1c[nH]c2ccccc12)C(=O)N[C@@H](C(=O)N1CCC[C@@H]1C(=O)N[C@H](CO)C(=O)N[C@H](Cc1c[nH]c2ccccc12)C(=O)N[C@H](CCSC)C(=O)N1CCC[C@@H]1C(=O)N1CCC[C@@H]1C(=O)N[C@H](CCCNC(=N)N)C(=O)N[C@H](Cc1c[nH]cn1)C(=O)N[C@@H](C(N)=O)[C@H](C)O)C(C)C [Comparative Example 2, reference compound] (X2-[dP][dW][dV][dP][dS][dW][dM][dP][dP][dR][dH][dT]-NH2; N-terminus and C-terminus assumed)
- IC50 [1]: 60.6 nM
- IC50 ([2]; read-out: IC50 values of compounds, Example 11, Table 4): 104 nM

Structure (SMILES): CCc1c2c(nc3ccc(O)cc13)-c1cc3c(c(=O)n1C2)COC(=O)[C@@]3(CC)OC(=O)CCCCn1cc(CCCC(=O)NCCCOCCOCCOCCSCNC(=O)CCC(=O)NC(CN)C(=O)NC(CCCCN)C(=O)NC(C)C(=O)N2CCCC2C(=O)NC(CCC(=O)O)C(=O)NC(C(=O)NC(C)C(=O)NC(CC(C)O)C(=O)NC(CC(N)=O)C(N)=O)C(C)O)nn1 (some centres unmarked) [G2B-001 lineal (Ib)] ({X3-Suc}-[ξDap][ξK][ξA][ξP][ξE][ξT][ξA][X4][ξN]-NH2)
- solubility in water [3]: good solubility
- half-life at 200 μM [4]: > 24 h
- recovery at 24 h, 200 μM ([4]; 24 h, read-out: % Recovery after 24 h in human plasma): 69.9%
- IC50 ([2]; read-out: IC50 values, Example 25, Table 8): 36.8 nM

Structure (SMILES): CCc1c2c(nc3ccc(OC(=O)OCc4ccc(NC(=O)[C@H](CCCNC(N)=O)NC(=O)[C@@H](NC(=O)COCC(=O)N[C@H]5CNC(=O)C[C@@H](C(N)=O)NC(=O)[C@H](CC(C)C)NC(=O)[C@H](C)NC(=O)[C@H]([C@@H](C)O)NC(=O)[C@H](CCC(=O)O)NC(=O)[C@@H]6CCCN6C(=O)[C@H](C)NC(=O)[C@H](CCCCN)NC5=O)C(C)C)cc4)cc13)-c1cc3c(c(=O)n1C2)COC(=O)[C@]3(O)CC [G2B-004 (Id)] (X6-[Dap]KAPETALD-NH2; lactam 1-9)
- solubility in water [3]: good solubility

Structure (SMILES): CCC[C@H](NC(=O)CNC(=O)Oc1ccc2nc3c(c(CC)c2c1)Cn1c-3cc2c(c1=O)COC(=O)[C@]2(O)CC)C(=O)N1CCC[C@H]1C(=O)NCC(=O)N[C@H]1CNC(=O)C[C@@H](C(N)=O)NC(=O)[C@H](CC(C)C)NC(=O)[C@H](C)NC(=O)[C@H]([C@@H](C)O)NC(=O)[C@H](CCC(=O)O)NC(=O)[C@@H]2CCCN2C(=O)[C@H](C)NC(=O)[C@H](CCCCN)NC1=O [G2B-005 (Ie)] (X7-G[Nva]PG[Dap]KAPETALD-NH2; lactam 5-13)
- solubility in water [3]: good solubility

Structure (SMILES): COC(=O)C1=C(C)NC(C)=C(C(=O)OCCN(C)Cc2ccccc2)C1c1cccc([N+](=O)[O-])c1 (centres unmarked) [Nicardipine, reference compound]
- solubility at 2 h ([5]; Calculated mid-range): 11.5 µM (≈ 5.51 µg/mL)
- solubility at 2 h ([5]; Lower bond): 3 µM (≈ 1.44 µg/mL)
- solubility at 2 h ([5]; Upper bond): 20 µM (≈ 9.59 µg/mL)
